± gives the expanded uncertainty stated by the source. One block for each compound: values may come before it.
Assay: wn = mass fraction of the nth substance listed
Settings: 273.15 K, 102.5 kPa, Liquid; for viscosity: Capillary tube (Ostwald / Ubbelohde) method; for mass density: Pycnometric method

SMILES: O=[PH2][O-].O=[PH2][O-].[Zn+2] [zinc(II) phosphinate] + O
viscosity (w1 = 0.1379): 2.95 ± 0.06 mPa·s | mass density (w1 = 0.1379): 1069 ± 1 kg/m3

SMILES: O=[PH2][O-].[Na+] [sodium phosphinate] + O
viscosity (w1 = 0.478): 73.88 ± 1.9 mPa·s | mass density (w1 = 0.478): 1384 ± 1 kg/m3

viscosity (w1 = 0.666): 135.4 ± 4.5 mPa·s | mass density (w1 = 0.666): 1943 ± 3 kg/m3
SMILES: [Cl-].[Cl-].[Zn+2] [zinc chloride] + O

viscosity (w1 = 0.2625): 2.16 ± 0.05 mPa·s | mass density (w1 = 0.2625): 1201 ± 1 kg/m3
SMILES: [Cl-].[Na+] [sodium chloride] + O

— the NIST ThermoML archive (doi:10.1016/j.jct.2014.04.014)
